Our source for the effect and Ki values is patent US5240933A, “14-hydroxy-N-(2-methoxyethyl)-7,8-dihydromorphine and -norisomorphine, processes for the preparation thereof and the use thereof as pharmaceutical compositions” (Boehringer Ingelheim GmbH, priority 1991, dated 1993).

A short description of assay [1]: phenylquinone writhing test (analgesic effect). In kind it is in vivo. As to the method:
(§1) In this test, compound 1a according to the invention has a mean effective dose (MED) of 2.5 mg/kg p.o. (64% effect) and compound 1b according to the invention has an MED of 10 mg/kg p.o. (71% effect). […] This small sodium shift indicates the […] nature of the compounds according to the invention.
In general terms: Writhing tests count abdominal constrictions after an irritant is injected.

Assay [2] concerns the target opiate receptor. The assay is described as follows: opiate receptor binding test with [^3 H]-naloxon as radioligand. As to the method:
as §1

For assay [3], the target named is opiate receptor (Homo sapiens, UniProt P35372). The assay is described as follows: opiate receptor binding test with [^3 H]-dihydromorphine as radioligand. As to the method:
as §1

Setting [4] is: with the addition of 0.1M sodium chloride.

opiate receptor (Homo sapiens, UniProt P35372), sequence (P35372 whole entry): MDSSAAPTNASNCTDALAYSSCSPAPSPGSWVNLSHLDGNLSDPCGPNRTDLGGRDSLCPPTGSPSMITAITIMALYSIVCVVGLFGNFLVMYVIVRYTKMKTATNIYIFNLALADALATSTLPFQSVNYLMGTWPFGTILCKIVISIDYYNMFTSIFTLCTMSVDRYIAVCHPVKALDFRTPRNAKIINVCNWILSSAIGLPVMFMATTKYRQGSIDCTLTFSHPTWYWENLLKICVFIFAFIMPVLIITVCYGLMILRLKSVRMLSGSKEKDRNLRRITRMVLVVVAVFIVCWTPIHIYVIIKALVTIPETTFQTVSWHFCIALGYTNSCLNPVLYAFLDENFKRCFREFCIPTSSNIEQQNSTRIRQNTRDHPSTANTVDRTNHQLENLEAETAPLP

For the molecule `CC(C)Cc1ccc(C(C)C(=O)O)cc1` (stereo not drawn) [Ibuprofen, reference compound], the effect in assay [1] (dose of 25 mg/kg p.o., comparison compound) turned out to be 65%.
Regarding `COCCN1CC[C@]23c4c5ccc(O)c4O[C@H]2[C@@H](O)CC[C@@]3(O)[C@H]1C5` [compound 1a, 14-hydroxy-N-(2-methoxyethyl)-7,8-dihydronormorphine], the effect in assay [1] (at MED of 2.5 mg/kg p.o.) was 64%. Besides, the Ki – broadly, the dissociation constant of the complex between target and ligand, obtained from inhibition or displacement – on opiate receptor [2] (setting [4]) was 2.39 nM; at opiate receptor [2] (without sodium chloride) it was 2.14 nM; on opiate receptor [3], 0.91 nM.
Molecule `COCCN1CC[C@]23c4c5ccc(O)c4O[C@H]2[C@H](O)CC[C@@]3(O)[C@H]1C5` [compound 1b, 14-hydroxy-N-(2-methoxyethyl)-7,8-dihydronorisomorphine] returned an effect in assay [1] (at MED of 10 mg/kg p.o.) of 71%. Also, the Ki at opiate receptor [2] (setting [4]) came out at 1.19 nM; on opiate receptor [2] (without sodium chloride), 1.07 nM; on opiate receptor [3], 1.79 nM.
